The source made the active and inactive calls. For most assays here, no stated cut-off is given here; in the data, actives have a measured EC50 and inactives only a lower limit.
How the values were obtained:
[1] = target: FAD-linked sulfhydryl oxidase ALR (Homo sapiens, UniProt P55789); experiment: ALR-catalysed DTT oxidation blockers – biochemical, H2O2 detection, luminescence, cherry-pick, dose response (AID 493248)
[2] = target: T1, Heat shock factor protein 1 (Mus musculus, UniProt P38532); experiment: enhancement of HSF1-driven luciferase signal – cell-based, NIH3T3, luminescence, dose retest, confirmation (AID 435004); format: functional;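 further: stress induced by proteasome inhibitor MG132 added 30 min after compound; luciferase reporter driven by HSF1 response element in NIH3T3 cells; actives raise luminescence as potentiators of the MG132 stress response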
T1 sequence (P38532 whole entry): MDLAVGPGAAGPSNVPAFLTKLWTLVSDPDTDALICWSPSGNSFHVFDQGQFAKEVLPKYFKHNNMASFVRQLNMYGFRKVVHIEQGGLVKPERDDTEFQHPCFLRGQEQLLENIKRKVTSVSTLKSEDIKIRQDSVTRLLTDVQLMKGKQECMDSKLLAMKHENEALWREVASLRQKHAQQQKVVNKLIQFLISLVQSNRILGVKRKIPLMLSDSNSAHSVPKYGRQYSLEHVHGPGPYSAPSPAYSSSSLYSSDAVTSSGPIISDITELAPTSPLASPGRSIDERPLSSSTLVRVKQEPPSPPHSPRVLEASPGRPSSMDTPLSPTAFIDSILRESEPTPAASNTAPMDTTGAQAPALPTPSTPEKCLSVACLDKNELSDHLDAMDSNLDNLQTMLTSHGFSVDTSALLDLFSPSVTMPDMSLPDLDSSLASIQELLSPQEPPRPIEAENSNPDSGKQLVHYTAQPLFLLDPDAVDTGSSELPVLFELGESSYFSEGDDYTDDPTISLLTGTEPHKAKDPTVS

[3] = target: T2, Replicative DNA helicase DnaB (Mycobacterium tuberculosis, UniProt P9WMR3); experiment: DnaB intein splicing inhibitors, dose response, biochemical, cell-free fluorescence (AID 449749); format: functional
T2 sequence (P9WMR3 whole entry): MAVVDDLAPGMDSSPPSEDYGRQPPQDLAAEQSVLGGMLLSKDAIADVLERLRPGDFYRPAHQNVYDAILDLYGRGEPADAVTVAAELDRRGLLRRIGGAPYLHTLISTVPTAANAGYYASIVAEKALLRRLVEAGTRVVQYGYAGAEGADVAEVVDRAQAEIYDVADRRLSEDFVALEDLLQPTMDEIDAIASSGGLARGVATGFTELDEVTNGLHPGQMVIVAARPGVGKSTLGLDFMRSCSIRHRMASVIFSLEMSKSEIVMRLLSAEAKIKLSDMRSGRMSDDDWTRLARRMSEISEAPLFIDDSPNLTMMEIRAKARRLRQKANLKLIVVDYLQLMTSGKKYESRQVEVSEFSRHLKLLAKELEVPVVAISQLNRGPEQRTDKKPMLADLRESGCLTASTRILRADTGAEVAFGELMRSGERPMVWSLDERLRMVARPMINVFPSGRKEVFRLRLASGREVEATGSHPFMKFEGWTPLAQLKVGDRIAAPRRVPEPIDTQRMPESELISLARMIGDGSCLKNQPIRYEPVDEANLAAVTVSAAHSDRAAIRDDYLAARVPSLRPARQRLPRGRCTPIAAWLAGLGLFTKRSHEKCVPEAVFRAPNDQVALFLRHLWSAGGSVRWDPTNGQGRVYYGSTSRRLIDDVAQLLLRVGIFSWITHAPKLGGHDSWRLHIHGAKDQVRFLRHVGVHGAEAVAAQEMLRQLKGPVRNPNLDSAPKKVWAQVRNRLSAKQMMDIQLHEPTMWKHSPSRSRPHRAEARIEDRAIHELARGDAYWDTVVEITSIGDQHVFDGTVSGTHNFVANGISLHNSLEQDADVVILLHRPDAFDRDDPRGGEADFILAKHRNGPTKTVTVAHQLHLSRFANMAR

Protein RecA = target: T3, Protein RecA (Mycobacterium tuberculosis, UniProt P9WHJ3); experiment: Fluorescence Cell-Free Homogeneous Dose Retest to Identify Inhibitors of RecA-Intein Splicing Activity. [Related pubchem assays (depositor defined):AID2097, AID2223, AID489010, AID492950]; format: functional
T3 sequence (P9WHJ3 whole entry): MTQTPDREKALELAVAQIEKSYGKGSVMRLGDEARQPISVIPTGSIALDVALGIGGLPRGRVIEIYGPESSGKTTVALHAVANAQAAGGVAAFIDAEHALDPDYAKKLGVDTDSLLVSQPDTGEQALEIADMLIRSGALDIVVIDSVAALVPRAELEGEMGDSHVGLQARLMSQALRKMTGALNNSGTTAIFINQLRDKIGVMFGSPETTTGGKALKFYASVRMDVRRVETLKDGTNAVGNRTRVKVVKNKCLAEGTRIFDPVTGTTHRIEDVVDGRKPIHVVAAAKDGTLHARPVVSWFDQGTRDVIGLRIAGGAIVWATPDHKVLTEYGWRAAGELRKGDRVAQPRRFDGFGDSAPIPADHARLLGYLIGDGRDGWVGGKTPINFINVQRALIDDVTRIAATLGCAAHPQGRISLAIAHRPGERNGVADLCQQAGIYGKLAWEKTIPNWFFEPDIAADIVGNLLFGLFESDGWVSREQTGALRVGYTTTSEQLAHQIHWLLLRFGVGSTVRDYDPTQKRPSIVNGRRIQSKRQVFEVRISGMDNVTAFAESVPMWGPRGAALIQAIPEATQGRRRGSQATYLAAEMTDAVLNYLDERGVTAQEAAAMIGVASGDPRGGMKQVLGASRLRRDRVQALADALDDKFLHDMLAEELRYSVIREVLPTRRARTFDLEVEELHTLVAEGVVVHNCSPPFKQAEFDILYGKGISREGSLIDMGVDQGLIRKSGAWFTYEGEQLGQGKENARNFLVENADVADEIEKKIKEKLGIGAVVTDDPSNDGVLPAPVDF

[4] = Trypanosoma cruzi growth suppression in host cells – NIH3T3 host cells, beta-gal luminescence, confirmation (AID 2044); format: functional, cell-based;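 further: intracellular parasites grown in NIH/3T3 mouse fibroblasts as host cells; luminescent beta-galactosidase reporter signal from transgenic T. cruzi replicating inside host cells; inhibitors lower the luminescence signal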
[5] = NIH3T3 cell viability loss – ATP luminescence, mouse fibroblasts, counter-screen, dose response (AID 2010); format: functional, cell-based;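 further: cells exposed to compound for about 90 hours before reading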
H9c2 = experiment: cells; format: functional, cell-based; conditions: Rattus norvegicus, H9c2, Myocardium;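 further: confirmatory concentration-response retest of ultra-high-throughput screening hits for modulation of myocardial damage; cell death induced by hydrogen peroxide oxidative stress; compound pretreatment for 60 min then peroxide exposure for 2 h; potency is for protecting the cells against peroxide damage rather than for killing them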
[6] = reduction of Shn3 3'UTR-driven luciferase in osteoblasts – cell-based, Clone20 osteoblasts, firefly luciferase, cherry-picked, dose response (AID 624132); format: functional;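 further: firefly luciferase luminescence from reporter carrying the Shn3 3'UTR in osteoblasts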
[7] = target: T4, RNA-binding protein pos-1 (Caenorhabditis elegans, UniProt G5EF15); experiment: disruptors of C. elegans POS-1 RNA interaction – biochemical, fluorescence polarization, dose response (AID 1964);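 further: purified POS-1 fused to maltose binding protein made in E. coli; potency of compounds blocking POS-1 binding to fluorescent RNA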
T4 sequence (G5EF15 whole entry): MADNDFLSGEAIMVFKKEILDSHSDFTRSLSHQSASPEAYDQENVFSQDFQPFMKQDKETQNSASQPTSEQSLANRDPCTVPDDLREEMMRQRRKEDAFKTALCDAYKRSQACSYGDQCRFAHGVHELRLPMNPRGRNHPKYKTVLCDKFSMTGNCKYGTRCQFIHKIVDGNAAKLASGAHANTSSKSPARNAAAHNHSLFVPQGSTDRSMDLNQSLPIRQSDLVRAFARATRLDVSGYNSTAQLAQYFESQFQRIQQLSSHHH

[8] = target: T5, Zinc finger protein mex-5 (Caenorhabditis elegans, UniProt Q9XUB2); experiment: potency of MEX-5 RNA-binding blockers – biochemical, C. elegans, fluorescence polarization, dose response (AID 1960)
T5 sequence (Q9XUB2 whole entry): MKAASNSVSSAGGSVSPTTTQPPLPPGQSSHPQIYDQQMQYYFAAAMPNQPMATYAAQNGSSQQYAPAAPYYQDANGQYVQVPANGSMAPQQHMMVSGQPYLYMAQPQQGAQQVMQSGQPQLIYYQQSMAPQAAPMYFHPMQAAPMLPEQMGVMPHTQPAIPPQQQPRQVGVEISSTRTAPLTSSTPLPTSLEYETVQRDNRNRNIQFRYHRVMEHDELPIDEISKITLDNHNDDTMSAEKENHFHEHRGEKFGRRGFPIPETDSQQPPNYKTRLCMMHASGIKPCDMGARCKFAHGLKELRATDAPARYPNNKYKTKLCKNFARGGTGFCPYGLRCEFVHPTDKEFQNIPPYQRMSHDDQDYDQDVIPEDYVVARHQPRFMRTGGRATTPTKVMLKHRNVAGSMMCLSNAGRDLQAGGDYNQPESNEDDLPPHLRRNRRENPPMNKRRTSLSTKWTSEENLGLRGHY

Sequence of FAD-linked sulfhydryl oxidase ALR (P55789 whole entry): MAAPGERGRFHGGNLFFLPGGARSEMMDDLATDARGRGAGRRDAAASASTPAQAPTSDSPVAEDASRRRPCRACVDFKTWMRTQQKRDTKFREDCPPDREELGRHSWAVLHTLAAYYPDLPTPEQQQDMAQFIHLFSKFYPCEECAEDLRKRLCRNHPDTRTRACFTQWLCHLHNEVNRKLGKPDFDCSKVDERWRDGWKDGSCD

In the case of `Cc1ccccc1NS(=O)(=O)c1cccc2nonc12`, the AC50 [1] is reported as 8.51 µM (active).
In the case of `COc1cc(NC(=O)COC(=O)c2ccc(C)c(S(=O)(=O)N3CCCCC3)c2)c(C)cc1[N+](=O)[O-]`, the EC50 [2] is reported as > 260 µM (inactive).
In the case of `CCOC(=O)c1nnc(-c2cccs2)nc1Oc1ccc(Cl)cc1`, the AC50 [3] is reported as 24.5 µM (active) and the EC50 (Protein RecA) is reported as 16.5 µM (active).
With `Cn1c(S)nnc1CCNC(=O)c1ccc(Cl)cc1` the AC50 [1] was 1.54 µM (active).
For `Cc1cccc(N2CCN(c3cccc(C)c3)C2c2cccnc2)c1`, the EC50 [4] was 0.165 µM (active), the EC50 [5] was 4.39 µM (active) and the EC50 [2] was > 260 µM (inactive).
With `O=C(Nc1ccccc1)C1Cc2ccccc2CN1C(=O)c1ccco1` (stereo unspecified) the AC50 [1] was 12.9 µM (active).
In the case of `NC(=O)c1nn(-c2ccccc2)nc1NC(=O)CN1CCCCC1`, the EC50 [2] is reported as > 260 µM (inactive).
In the case of `Cc1ccc(S(=O)(=O)NCC2CCC(C(=O)NCCCN3CCOCC3)CC2)cc1` (stereo unspecified), the AC50 [3] is reported as > 380 µM (inactive) and the EC50 (Protein RecA) is reported as > 380 µM (inactive).
For `Cc1ccc(C(=O)C(OC(=O)CN2C(=O)c3ccccc3C2=O)c2ccccc2)cc1C` (stereo unspecified), the AC50 [3] was 66.8 µM (active) and the EC50 (Protein RecA) was > 380 µM (inactive).
In the case of `O=C(O)CN1C(=O)/C(=C\c2cccc(OC(=O)c3ccco3)c2)SC1=S`, the AC50 [3] is reported as 29.5 µM (active) and the EC50 (Protein RecA) is reported as 22.6 µM (active).
In the case of `CCOC(=O)C1CCN(c2cc3c(cc2NC(=O)c2ccccc2Br)n(C)c(=O)n3C)CC1`, the IC50 (H9c2) is reported as 67.2 µM (inactive) and the AC50 [6] is reported as 21.3 µM (active).
With `CCCCCCOc1ccc(C(=O)n2cnc(N)n2)cc1` the AC50 [3] was 21.6 µM (active) and the EC50 (Protein RecA) was 1.46 µM (active).
For `CN1CCC(=NNc2ccc(S(=O)(=O)N3CCOCC3)cc2[N+](=O)[O-])CC1`, the EC50 [2] was > 260 µM (inactive).
For `O=C(CCl)Nc1cccc(CP(=O)(c2ccccc2)c2ccccc2)c1`, the AC50 [3] was 93.2 µM (active) and the EC50 (Protein RecA) was 18.4 µM (active).
For `Cc1nonc1OCCNCCNc1ccc([N+](=O)[O-])cc1Cl`, the EC50 [2] was > 260 µM (inactive).
In the case of `COc1ccc(-c2[nH]nc3c2C(c2ccsc2)C(C#N)=C(N)O3)cc1` (stereo unspecified), the AC50 [3] is reported as 19.2 µM (active) and the EC50 (Protein RecA) is reported as 13.3 µM (active).
With `O=C1N=C(c2ccccc2)C(c2ccccc2)N1` (stereo unspecified) the AC50 [1] was 0.318 µM (active).
For `O=C(O)CCc1ccc(-c2cccs2)n1NC(=O)c1ccccc1Br`, the AC50 [1] was 6.95 µM (active).
In the case of `Cc1ccc(-c2nnn[nH]2)cc1`, the EC50 [2] is reported as > 260 µM (inactive).
With `O=C(NCC1CCCO1)c1nn2c(C(F)(F)F)cc(-c3cc(Br)cs3)nc2c1Br` (stereo unspecified) the EC50 [7] was > 300 µM (not active), the EC50 [8] was > 300 µM (inconclusive) and the EC50 [2] was > 260 µM (inactive).
For `Cc1ccc(Nc2nc(CSc3nnnn3C)cs2)cc1`, the AC50 [1] was 1.54 µM (active).
With `COc1ccc(CC(=O)N2CCN=C2SCc2ccc([N+](=O)[O-])cc2)cc1` the AC50 [1] was < 0.005 µM (active).
For `O=C(Nc1cccn(Cc2c(Cl)cccc2Cl)c1=O)c1ccccc1Cl`, the EC50 [2] was > 260 µM (inactive).
For `CC(Sc1nc(-c2ccccc2)cc(C(F)(F)F)n1)C(=O)Nc1sc2c(c1C#N)CCC2` (stereo unspecified), the EC50 [4] was 0.137 µM (active), the EC50 [5] was > 60 µM (not active) and the EC50 [2] was > 260 µM (inactive).
With `CN(C)CCNC(=O)C(=O)NCC(c1ccc2c(c1)OCO2)N1CCN(c2ccc(F)cc2)CC1` (stereo unspecified) the AC50 [1] was 0.439 µM (active).
With `C=CC[C@H](CC(=O)N(CCO)Cc1ccccc1)C(=O)NC[C@H](OC(=O)[C@@H](CC=C)Cc1ccc(F)cc1)c1ccccc1` the AC50 [6] was 10.7 µM (active).
For `N#Cc1ccc(OCCN2CCc3ccccc3C2)cc1`, the EC50 [2] was > 260 µM (inactive).
In the case of `Cc1ccc(CC2SC(N=C(N)N)=NC2=O)cc1` (stereo unspecified), the EC50 [2] is reported as > 260 µM (inactive).
For `CCN(CC)S(=O)(=O)c1cccc(C(=O)N/N=C/c2cc(OC)c(O)c(OC)c2)c1`, the AC50 [1] was 0.21 µM (active).
For `Cc1cc(OC(=O)c2ccccc2)n(CCC#N)n1`, the AC50 [3] was 8.7 µM (active) and the EC50 (Protein RecA) was 2.67 µM (active).
With `Cc1onc(-c2c(Cl)cccc2Cl)c1C(=O)N[C@@H]1C(=O)N2[C@@H]1SC(C)(C)[C@@H]2C(=O)O` [DICLOXACILLIN SODIUM] the AC50 [6] was 46.7 µM (active).
